Here are results for five compounds from US20120052142A1, “BIOLOGICALLY ACTIVE COMPOSITIONS FROM Schisandra chinensis FOR TREATING COLORECTAL CANCER” (Dr. Chang Naturals, LLC, priority 2010, published 2012).

Entries after “also recorded” stand apart in the source; their conditions may differ. Where two headings read alike, the source gives them in different places.

Assay [1] relates to human colorectal carcinoma cell line HT29. Kind of assay: MTS cell viability assay, HT-29. Format: cell-based. An excerpt: The comestible use of the fruit products and its potential anticancer properties prompted the current investigation as to whether the active constituents could be used to treat colorectal cancer. The robust MTS cell viability assay with the p53-mutant human colon HT-29 cell line served as an assay-guided screening tool for the purification of the active principles of the fruit extract (see further description in the Example section).
Erythroleukemia K562, human colon HT-29 and breast MCF-7 cancer cell lines were obtained from the American Type Culture Collection (Manassas, Va., USA). All cells were maintained in Dulbecco's modified Eagle's medium (DMEM) supplemented with 10% fetal bovine serum, penicillin (100 U ml^−1) and streptomycin (100 U ml^−1). Cells were incubated at 37° C. in a 5% CO2 humidified atmosphere.
Cells were seeded at a density of 1.5×10^4 cells/well on a 96-well plate. When the cells reached 60 to 70% confluency, the growth medium was aspirated and the wells were rinsed with pre-warmed PBS. Test compounds at various concentrations or 1% DMSO (vehicle control) were then added and the plates were incubated for 72 h. After incubation, 40 μL of a solution of CellTiter 96 Aqueous One Solution (Promega, Madison, Wis., USA) containing MTS [3-(4,5-dimethylthiazol-2-yl)-5-(3-carboxymethoxyphenyl)-2-(4-sulfophenyl)-2H-tetrazolium)] and an electron coupling reagent (phenazine ethosulfate) were added to each well with an auto-repeat pipetor. The plates were incubated for 3 hours during which time the reagent was bio-reduced into a colored formazan product by the intracellular dehydrogenase enzymes of metabolically active cells. The quantity of formazan produced is directly proportional to the number of living cells in the cultures. The absorbance (A) was measured at 490 nm (reference at 690 nm) on a PowerWave 200 microplate reader (Bio-Tek Instruments). The results were expressed as percent cell viability, calculated for each drug concentration using the formula:
% Viability=(A treated group/A control group)×100%.
(100% viability was represented by samples with DMSO vehicle control).
The half-maximal inhibitory concentration, IC50, values were obtained from the sigmoidal curve by plotting the percentage viability of cells against the drug concentration using Psi-Plot version 9, Poly Software International (Pearl River, N.Y., USA).

A further assay deals with colon cell line LoVo. The following applies: Planta Medica 2010: 76:1672-1677; cited from earlier work.
The test system of the next assay is hepatic carcinoma. The conditions noted are these: especially in high concentrations; Molecular Medicine Reports 2:725-732, 2009; cited from earlier work.
The mark [2] stands for this setting: HT29, MTS cell viability, 72 h, average of two independent experiments in triplicate.
[3] abbreviates: HT-29, from dose-response curves (FIG. 4, FIG. 5), read-out: concentration inhibiting cell growth by 50% (IC50), molar basis.

With `COc1cc2c(c(OC)c1OC)-c1c(cc(OC)c(OC)c1OC)C[C@H](C)[C@@H](C)C2` [Deoxyschisandrin, deoxyschisandrin], the IC50 in assay [1] (Homo sapiens, HT-29, HT29, MTS cell viability, 72 h, average of two independent experiments in triplicate, read-out: Activity IC50) amounted to 140 µg/mL; in assay [1] (Homo sapiens, HT-29, from dose-response curves (FIG. 4, FIG. 5), read-out: concentration inhibiting cell growth by 50% (IC50), molar basis) it was 336 µM.

For the compound `COc1cc2c(c(OC)c1OC)-c1c(cc3c(c1OC)OCO3)C[C@H](C)[C@](C)(O)C2` [Gomisin A, gomisin A], the “Activity IC50” value in assay [1] (setting [2]) stood at 300 µg/mL. Moreover, the IC50 in assay [1] (setting [3]) was determined as 716 µM.

Take `COc1cc2c(c(OC)c1OC)-c1c(cc3c(c1OC)OCO3)C[C@H](C)[C@H](C)C2` [Gomisin N, gomisin N]: in assay [1] (setting [2]), the “Activity IC50” value was 17 µg/mL. Further, in assay [1] (setting [3]), the IC50 turned out to be 43 µM. Besides, the “activity against LoVo (in words)” value with colon cell line LoVo is recorded as “do not find Gomisin N to be active”. For the same compound, the “apoptosis induction in hepatic carcinoma (in words)” value in the assay with hepatic carcinoma is “induces high apoptotic levels”.

On to `COc1cc2c(c(OC)c1OC)-c1c(cc(OC)c(OC)c1OC)C[C@](C)(O)[C@@H](C)C2` [Schisandrin, schisandrin], for which, in assay [1] (setting [2]), the “Activity IC50” value was over 1000 µg/mL. For the same compound, the “anti-proliferative activity against HT-29 (in words)” value is “devoid of detectable biological activity” in assay [1] (HT-29) and “does not show any activity; also recorded: inactive” in assay [1] (HT-29, listed as schisandrin).

On to `C/C=C(/C)C(=O)Oc1c(OC)c(OC)cc2c1-c1c(cc(OC)c(OC)c1OC)C[C@](C)(O)[C@@H](C)C2` [Angeloylgomisin H, angeloylgomisin H], for which the “Activity IC50” value in assay [1] (setting [2]) was found to be 348 µg/mL. The “anti-proliferative activity against HT-29 (in words)” value in assay [1] (HT-29) is on record as “moderate activity”. Besides, in assay [1] (setting [3]), the IC50 was found to be 696 µM.
